Assay results from patent US8067424B2, “Selective inhibitors for cyclin-dependent kinases” (Emory University, priority 2007, dated 2011).
Where two headings read alike, the source gives them in different places.

What was measured:
AURORA B = AURORA B (Homo sapiens, UniProt Q96GD4); experiment: Kinase screen: Aurora B assay; assay type: biochemical; conditions: read-out: Mean Remaining Enzyme Activity (%)
Experimental: Generally, the same procedure was used for all assays. Since the total assay volume was 25.5 microliters, 0.5 microliters of inhibitors at 51× assay concentration were added to the plates before any other addition.
The basic procedure was to add 0.5 microliters inhibitor/control in DMSO to plate. Fifteen microliters of enzyme/substrate/buffer mix were added and incubated for 5 min. Ten microliters MgATP at the relevant concentration were added and incubated for 30 min. The assay was stopped by adding 5 microliters of 3% orthophosphoric acid. The assay was transferred to a p81 filter plate and read in a scintillation counter of 30 sec/well. Note that this assay procedure was not followed for MKK1, which instead involved a two-step assay, and PKC alpha, which required the addition of lipid vesicles.
Aurora B assay: Aurora B (5-20 mU diluted in 50 mM Tris pH 7.5, 0.1 mM EGTA, 0.1% b-mercaptoethanol, 1 mg/ml BSA) was assayed against a substrate peptide ([…]) (SEQ ID NO: 26) in a final volume of […] containing 50 mM Tris pH 7.5, 0.05% b-mercaptoethanol, 300 μM substrate peptide, 10 mM magnesium acetate and 0.02 mM [33P-g-ATP] (50-1000 cpm/pmole) and incubated for 30 min at room temperature. Assays were stopped by addition of 5 μl of 0.5 M (3%) orthophosphoric acid and then harvested onto P81 Unifilter plates with a wash buffer of 50 mM orthophosphoric acid.

COLO 205 = experiment: cells; conditions: Homo sapiens
NCI-H522 = experiment: cells; conditions: Homo sapiens
MCF7 = experiment: cells; conditions: Homo sapiens
U251 = experiment: cells; conditions: Homo sapiens
MDA-MB-231/ATCC = conditions: for Mean Optical Densities / Percent Growth: MDA-MB-231/ATCC
M14 = experiment: cells; conditions: Homo sapiens
[1] = SK-MEL-2, log10 concentration −4.0
[2] = SK-MEL-2, log10 concentration −5.0
[3] = SK-MEL-2, log10 concentration −6.0
[4] = SK-MEL-2, log10 concentration −7.0
[5] = SK-MEL-2, log10 concentration −8.0
[6] = HOP-62, log10 concentration −4.0
[7] = HOP-62, log10 concentration −5.0
[8] = HOP-62, log10 concentration −6.0
[9] = HOP-62, log10 concentration −7.0
[10] = HOP-62, log10 concentration −8.0
[11] = IGROV1, log10 concentration −4.0
[12] = IGROV1, log10 concentration −5.0
[13] = IGROV1, log10 concentration −6.0
[14] = IGROV1, log10 concentration −7.0
[15] = IGROV1, log10 concentration −8.0
[16] = NCI-H23, log10 concentration −4.0
[17] = NCI-H23, log10 concentration −5.0
[18] = NCI-H23, log10 concentration −6.0
[19] = NCI-H23, log10 concentration −7.0
[20] = NCI-H23, log10 concentration −8.0
[21] = OVCAR-8, log10 concentration −4.0
[22] = OVCAR-8, log10 concentration −5.0
[23] = OVCAR-8, log10 concentration −6.0
[24] = OVCAR-8, log10 concentration −7.0
[25] = OVCAR-8, log10 concentration −8.0
[26] = HOP-92, log10 concentration −4.0
[27] = HOP-92, log10 concentration −5.0
[28] = HOP-92, log10 concentration −6.0
[29] = HOP-92, log10 concentration −7.0
[30] = HOP-92, log10 concentration −8.0

Sequence of AURORA B (Q96GD4 whole entry): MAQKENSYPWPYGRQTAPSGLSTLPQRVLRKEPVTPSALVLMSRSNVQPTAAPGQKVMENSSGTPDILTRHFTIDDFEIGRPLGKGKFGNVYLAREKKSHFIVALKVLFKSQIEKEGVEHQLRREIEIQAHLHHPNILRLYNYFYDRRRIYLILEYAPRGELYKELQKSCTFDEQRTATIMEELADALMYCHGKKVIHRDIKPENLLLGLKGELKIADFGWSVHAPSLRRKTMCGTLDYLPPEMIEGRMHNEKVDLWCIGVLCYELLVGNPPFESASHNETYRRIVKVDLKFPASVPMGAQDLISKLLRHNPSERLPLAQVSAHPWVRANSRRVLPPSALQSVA

Structure (SMILES): CC(C)c1cnn2c(NCc3ccccc3)cc(NCCCCCCCN)nc12 [BS-181]
- remaining activity at 10 µM (AURORA B): 95%

Structure (SMILES): CC(C)c1cnn2c(NCc3ccccc3)cc(N[C@@H](CO)[C@H](O)CO)nc12 [ICEC0318, (3S)-3-(7-(Benzylamino)-3-isopropylpyrazolo[1,5-a]pyrimidin-5-ylamino)butane-1,2,4-triol]
- GI50 (COLO 205; COLO 205): 147 nM
- CC50 (COLO 205; COLO 205, read-out: LC50): 993 nM
- GI50 (NCI-H522; NCI-H522): 375 nM
- CC50 (NCI-H522; NCI-H522, read-out: LC50): > 100000 nM
- GI50 (MCF7; MCF7): 221 nM
- CC50 (MCF7; MCF7, read-out: LC50): > 100000 nM
- TGI (SK-MEL-2; SK-MEL-2 (Melanoma)): 8.22E−5
- Mean Optical Densities (SK-MEL-2; [1]): 1.061
- Percent Growth (SK-MEL-2; [1]): −1%
- Mean Optical Densities (SK-MEL-2; [2]): 1.218
- Percent Growth (SK-MEL-2; [2]): 12%
- Mean Optical Densities (SK-MEL-2; [3]): 1.290
- Percent Growth (SK-MEL-2; [3]): 18%
- Mean Optical Densities (SK-MEL-2; [4]): 2.275
- Percent Growth (SK-MEL-2; [4]): 99%
- Mean Optical Densities (SK-MEL-2; [5]): 2.282
- Percent Growth (SK-MEL-2; [5]): 100%
- GI50 (U251; U-251): 261 nM
- CC50 (U251; U-251, read-out: LC50): > 100000 nM
- TGI (HOP-62; HOP-62 (Non-Small Cell Lung Cancer)): 7.68E−7
- Mean Optical Densities (HOP-62; [6]): 0.336
- Percent Growth (HOP-62; [6]): −28%
- Mean Optical Densities (HOP-62; [7]): 0.393
- Percent Growth (HOP-62; [7]): −15%
- Mean Optical Densities (HOP-62; [8]): 0.412
- Percent Growth (HOP-62; [8]): −12%
- Mean Optical Densities (HOP-62; [9]): 1.165
- Percent Growth (HOP-62; [9]): 89%
- Mean Optical Densities (HOP-62; [10]): 1.312
- Percent Growth (HOP-62; [10]): 107%
- TGI (HT29; HT29 (Colon Cancer)): 3.66E−5
- Mean Optical Densities (HT29; HT29, log10 concentration −4.0): 0.190
- Percent Growth (HT29; HT29, log10 concentration −4.0): −2%
- Mean Optical Densities (HT29; HT29, log10 concentration −5.0): 0.216
- Percent Growth (HT29; HT29, log10 concentration −5.0): 2%
- Mean Optical Densities (HT29; HT29, log10 concentration −6.0): 0.247
- Percent Growth (HT29; HT29, log10 concentration −6.0): 5%
- Mean Optical Densities (HT29; HT29, log10 concentration −7.0): 1.345
- Percent Growth (HT29; HT29, log10 concentration −7.0): 100%
- Mean Optical Densities (HT29; HT29, log10 concentration −8.0): 1.394
- Percent Growth (HT29; HT29, log10 concentration −8.0): 105%
- TGI (MDA-MB-231/ATCC; MDA-MB-231/ATCC (Breast Cancer)): >1.00E−4
- Mean Optical Densities (MDA-MB-231/ATCC; log10 concentration −4.0): 0.482
- Percent Growth (MDA-MB-231/ATCC; log10 concentration −4.0): 11%
- Mean Optical Densities (MDA-MB-231/ATCC; log10 concentration −5.0): 0.529
- Percent Growth (MDA-MB-231/ATCC; log10 concentration −5.0): 19%
- Mean Optical Densities (MDA-MB-231/ATCC; log10 concentration −6.0): 0.548
- Percent Growth (MDA-MB-231/ATCC; log10 concentration −6.0): 22%
- Mean Optical Densities (MDA-MB-231/ATCC; log10 concentration −7.0): 1.039
- Percent Growth (MDA-MB-231/ATCC; log10 concentration −7.0): 101%
- Mean Optical Densities (MDA-MB-231/ATCC; log10 concentration −8.0): 1.087
- Percent Growth (MDA-MB-231/ATCC; log10 concentration −8.0): 109%
- TGI (IGROV1; IGROV1 (Ovarian Cancer)): >1.00E−4
- Mean Optical Densities (IGROV1; [11]): 0.451
- Percent Growth (IGROV1; [11]): 4%
- Mean Optical Densities (IGROV1; [12]): 0.510
- Percent Growth (IGROV1; [12]): 10%
- Mean Optical Densities (IGROV1; [13]): 0.528
- Percent Growth (IGROV1; [13]): 12%
- Mean Optical Densities (IGROV1; [14]): 1.088
- Percent Growth (IGROV1; [14]): 68%
- Mean Optical Densities (IGROV1; [15]): 1.429
- Percent Growth (IGROV1; [15]): 103%
- TGI (NCI-H23; NCI-H23 (Non-Small Cell Lung Cancer)): >1.00E−4
- Mean Optical Densities (NCI-H23; [16]): 0.562
- Percent Growth (NCI-H23; [16]): 1%
- Mean Optical Densities (NCI-H23; [17]): 0.563
- Percent Growth (NCI-H23; [17]): 1%
- Mean Optical Densities (NCI-H23; [18]): 0.633
- Percent Growth (NCI-H23; [18]): 6%
- Mean Optical Densities (NCI-H23; [19]): 1.639
- Percent Growth (NCI-H23; [19]): 81%
- Mean Optical Densities (NCI-H23; [20]): 1.802
- Percent Growth (NCI-H23; [20]): 93%
- TGI (OVCAR-8; OVCAR-8 (Ovarian Cancer)): >1.00E−4
- Mean Optical Densities (OVCAR-8; [21]): 0.723
- Percent Growth (OVCAR-8; [21]): 10%
- Mean Optical Densities (OVCAR-8; [22]): 0.810
- Percent Growth (OVCAR-8; [22]): 16%
- Mean Optical Densities (OVCAR-8; [23]): 0.803
- Percent Growth (OVCAR-8; [23]): 15%
- Mean Optical Densities (OVCAR-8; [24]): 1.975
- Percent Growth (OVCAR-8; [24]): 89%
- Mean Optical Densities (OVCAR-8; [25]): 2.165
- Percent Growth (OVCAR-8; [25]): 101%
- TGI (HOP-92; HOP-92 (Non-Small Cell Lung Cancer)): >1.00E−4
- Mean Optical Densities (HOP-92; [26]): 0.594
- Percent Growth (HOP-92; [26]): 12%
- Mean Optical Densities (HOP-92; [27]): 0.612
- Percent Growth (HOP-92; [27]): 16%
- Mean Optical Densities (HOP-92; [28]): 0.645
- Percent Growth (HOP-92; [28]): 22%
- Mean Optical Densities (HOP-92; [29]): 0.981
- Percent Growth (HOP-92; [29]): 86%
- Mean Optical Densities (HOP-92; [30]): 1.050
- Percent Growth (HOP-92; [30]): 99%
- GI50 (M14; M14): 305 nM
- CC50 (M14; M14, read-out: LC50): 45200 nM
